These results are taken from US8946282B2, “Indolin-2-one derivatives as protein kinase inhibitors” (Annji Pharmaceutical Co., Ltd., priority 2012, dated 2015).

SMILES strings stand for the structures.

For one data set, the target named is aurora B (Homo sapiens, UniProt Q96GD4). Nature of the data set: radioisotope-based P81 filter-binding assay, aurora B kinase. The class given is biochemical. As to conditions: for IC50: averaged from two independent dose-response curves, read-out: Enzyme assay IC50 Aur B; for inhibition at 1 µM: compound at 1.0 μM, mean values (n=2), read-out: percent inhibition of enzyme catalytic activity, Aur B (numbers in parentheses). Here is the method: (§1) Compounds of formula (I)-(IV) were evaluated for abilities in inhibiting protein kinases aurora B and FLT-3 activity using radioisotope-based P81 filter-binding assay (Table 1).

The next data set has as its target T1, FLT-3 (Homo sapiens, UniProt P36888).
T1 sequence (P36888 27-993): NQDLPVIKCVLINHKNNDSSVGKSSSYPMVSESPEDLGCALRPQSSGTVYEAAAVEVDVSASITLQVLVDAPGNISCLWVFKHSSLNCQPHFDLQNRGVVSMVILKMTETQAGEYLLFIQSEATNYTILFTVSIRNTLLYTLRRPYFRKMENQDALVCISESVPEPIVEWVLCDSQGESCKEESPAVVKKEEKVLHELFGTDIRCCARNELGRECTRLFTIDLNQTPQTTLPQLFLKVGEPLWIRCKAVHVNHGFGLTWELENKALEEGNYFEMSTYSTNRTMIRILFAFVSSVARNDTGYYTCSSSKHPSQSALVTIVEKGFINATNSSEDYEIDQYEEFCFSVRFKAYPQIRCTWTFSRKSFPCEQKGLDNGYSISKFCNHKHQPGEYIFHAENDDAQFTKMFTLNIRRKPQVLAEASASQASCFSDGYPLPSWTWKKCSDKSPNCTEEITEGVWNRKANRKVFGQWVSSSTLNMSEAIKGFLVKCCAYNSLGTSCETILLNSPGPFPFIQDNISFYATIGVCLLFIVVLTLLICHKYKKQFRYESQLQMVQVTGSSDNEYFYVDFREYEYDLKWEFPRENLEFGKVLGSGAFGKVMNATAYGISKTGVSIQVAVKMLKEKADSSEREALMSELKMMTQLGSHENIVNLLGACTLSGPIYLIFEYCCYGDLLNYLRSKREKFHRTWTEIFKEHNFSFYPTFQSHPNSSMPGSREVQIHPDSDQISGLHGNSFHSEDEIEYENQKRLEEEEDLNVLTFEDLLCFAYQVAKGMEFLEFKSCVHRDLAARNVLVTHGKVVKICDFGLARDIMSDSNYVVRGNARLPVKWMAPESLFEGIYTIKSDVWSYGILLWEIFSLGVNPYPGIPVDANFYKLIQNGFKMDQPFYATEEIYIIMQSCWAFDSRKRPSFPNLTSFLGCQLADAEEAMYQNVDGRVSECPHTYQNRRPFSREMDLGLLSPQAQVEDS
The data set is described as follows: radioisotope-based P81 filter-binding assay, FLT-3 kinase. Format: biochemical. The conditions noted are these: for IC50: averaged from two independent dose-response curves, read-out: Enzyme assay IC50 FLT-3; for inhibition at 1 µM: compound at 1.0 μM, mean values (n=2), read-out: percent inhibition of enzyme catalytic activity, FLT-3 (numbers in parentheses). Here is the method: as §1

aurora B, sequence (Q96GD4 whole entry): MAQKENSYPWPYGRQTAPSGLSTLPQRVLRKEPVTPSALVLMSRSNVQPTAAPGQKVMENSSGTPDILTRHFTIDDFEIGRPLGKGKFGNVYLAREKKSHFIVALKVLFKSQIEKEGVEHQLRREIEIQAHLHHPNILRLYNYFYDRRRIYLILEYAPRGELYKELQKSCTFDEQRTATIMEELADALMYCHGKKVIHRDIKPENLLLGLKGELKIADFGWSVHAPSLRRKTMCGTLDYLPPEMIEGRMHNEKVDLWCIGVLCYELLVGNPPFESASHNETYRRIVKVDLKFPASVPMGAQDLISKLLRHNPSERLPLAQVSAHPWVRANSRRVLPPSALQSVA

As to `Cc1[nH]c(/C=C2\C(=O)Nc3cc(NC(=O)NC(=O)c4ccc(Cl)c(Cl)c4)ccc32)c(C)c1C(=O)O` [D34, (Z)-5-((6-(3-(3,4-dichlorobenzoyl)ureido)-2-oxoindolin-3-ylidene)methyl)-2,4-dimethyl-1H-pyrrole-3-carboxylic acid], the melting point was 295 to 300 °C (dec.). For the same compound, the half-maximal inhibitory concentration (IC50) at aurora B worked out at 2.1 nM. The IC50 on FLT-3 came out at 54.2 nM.

The compound `Cc1[nH]c(/C=C2\C(=O)Nc3cc(NC(=O)c4c[nH]cc(C)c4=O)ccc32)c(C)c1C(=O)O` [D143, (Z)-2,4-dimethyl-5-((6-(5-methyl-4-oxo-1,4-dihydropyridine-3-carboxamido)-2-oxoindolin-3-ylidene)methyl)-1H-pyrrole-3-carboxylic acid] came in with a melting point above 300 °C. On aurora B, the IC50 is 3.7 nM. At FLT-3, the IC50 was found to be 194 nM.

As for `Cc1[nH]c(/C=C2\C(=O)Nc3cc(NC(=O)N4CCN(C5CC5)C4=O)ccc32)c(C)c1C(=O)O` [D96, (Z)-5-((6-(3-cyclopropyl-2-oxoimidazolidine-1-carboxamido)-2-oxoindolin-3-ylidene)methyl)-2,4-dimethyl-1H-pyrrole-3-carboxylic acid], the melting point is above 300 °C. Also, on aurora B, the half-inhibitory concentration (IC50) was 3.5 nM. Moreover, at FLT-3, the IC50 is 217 nM.

As to `COc1ccc(C(=O)NC(=O)Nc2ccc3c(c2)NC(=O)/C3=C/c2ccc(Cl)cc2)cc1` [D18, (E)-N-(3-(4-chlorobenzylidene)-2-oxoindolin-6-ylcarbamoyl)-4-methoxybenz-amide], the melting point is 278 to 283 °C (dec.). In addition, the inhibition at 1 µM at aurora B turned out to be 12.8%. Further, at FLT-3, the inhibition at 1 µM is 6.1%.

`O=C1Nc2c(NC(=O)c3cccn(-c4ccc(F)cc4)c3=O)cccc2/C1=C/c1ccc[nH]1` [D118, (Z)—N-(3-((1H-pyrol-2-yl)methylene)-2-oxoindolin-7-yl)-1-(4-fluorophenyl)-2-oxo-1,2-dihydropyridine-3-carboxamide]: the melting point is above 300 °C. For the same compound, the IC50 on aurora B was above 1000 nM. The IC50 at FLT-3 was above 1000 nM.

For `COc1cc(OC)cc(C(=O)NC(=O)Nc2ccc3c(c2)NC(=O)/C3=C\c2[nH]c(C)c(C(=O)O)c2C)c1` [D42, (Z)-5-((6-(3-(3,5-dimethoxybenzoyl)ureido)-2-oxoindolin-3-ylidene)methyl)-2,4-dimethyl-1H-pyrrole-3-carboxylic acid], the melting point was above 300 °C. Further, the 50% inhibitory concentration (IC50) at aurora B was 2.1 nM. In addition, at FLT-3, the IC50 amounted to 115 nM.

Regarding `COc1ccc(C(=O)NC(=O)Nc2ccc3c(c2)NC(=O)/C3=C\c2[nH]c(C)cc2C)cc1` [D44, (Z)—N-(3-((3,5-dimethyl-1H-pyrrol-2-yl)methylene)-2-oxoindolin-6-ylcarbamoyl)-4-methoxybenzamide], the melting point is 293 to 298 °C. Besides, the IC50 at aurora B is 55.5 nM. The IC50 at FLT-3 was above 1000 nM.

Consider `COc1ccc(C(=O)NC(=O)Nc2ccc3c(c2)NC(=O)/C3=C\c2cccs2)cc1` [D22, (Z)-4-methoxy-N-(2-oxo-3-(thiophen-2-ylmethylene)indolin-6-ylcarbamoyl)benzamide], for which the melting point was 262 to 267 °C (dec.). Also, the IC50 on aurora B worked out at 21.5 nM. In addition, the IC50 at FLT-3 is above 1000 nM.

Consider `Cc1cc(C(=O)O)[nH]c1/C=C1\C(=O)Nc2cc(NC(=O)c3c[nH]cc(-c4ccc(F)cc4)c3=O)ccc21` [D146, (Z)-5-((6-(5-(4-fluorophenyl)-4-oxo-1,4-dihydropyridine-3-carboxamido)-2-oxoindolin-3-ylidene)methyl)-4-methyl-1H-pyrrole-2-carboxylic acid], for which the melting point amounted to 243 °C. For the same compound, on aurora B, the IC50 is above 1000 nM. Moreover, on FLT-3, the IC50 was above 1000 nM.

`O=C1Nc2cc(NC(=O)N3CCN(c4ccc(Cl)c(C(F)(F)F)c4)C3=O)ccc2/C1=C/c1ccc[nH]1` [D87, (Z)—N-(3-((1H-pyrrol-2-yl)methylene)-2-oxoindolin-6-yl)-3-(4-chloro-3-(trifluoromethyl)phenyl)-2-oxoimidazolidine-1-carboxamide] displayed a melting point above 300 °C. Further, the IC50 at aurora B worked out at 1040 nM. The IC50 on FLT-3 amounted to 569 nM.

Regarding `Cc1[nH]c(/C=C2\C(=O)Nc3cc(NC(=O)NC(=O)c4ccccc4)ccc32)c(C)c1C(=O)O` [D32, (Z)-5-((6-(3-benzoylureido)-2-oxoindolin-3-ylidene)methyl)-2,4-dimethyl-1H-pyrrole-3-carboxylic acid], the melting point is 270 to 275 °C (dec.). In addition, the IC50 on aurora B is 2.1 nM. The IC50 at FLT-3 was 904 nM.

Consider `Cc1[nH]c(/C=C2\C(=O)Nc3cc(NC(=O)NC(=O)c4ccc([N+](=O)[O-])cc4)ccc32)c(C)c1C(=O)O` [D38, (Z)-2,4-dimethyl-5-((6-(3-(4-nitrobenzoyl)ureido)-2-oxoindolin-3-ylidene)methyl)-1H-pyrrole-3-carboxylic acid], for which the melting point was 293 to 298 °C (dec.). Further, the IC50 on aurora B is 1.2 nM. Also, at FLT-3, the IC50 was above 1000 nM.

The compound `Cn1cccc(C(=O)Nc2ccc3c(c2)NC(=O)/C3=C\c2ccc[nH]2)c1=O` [D116, (Z)—N-(3-((1H-pyrrol-2-yl)methylene)-2-oxoindolin-6-yl)-1-methyl-2-oxo-1,2-dihydropyridine-3-carboxamide] yielded a melting point above 300 °C. For the same compound, the IC50 at aurora B stood at 102 nM. In addition, at FLT-3, the IC50 was determined as 510 nM.

As to `COc1ccc(C(=O)NC(=O)Nc2cc3c(cc2F)/C(=C/c2[nH]c(C)c(CCC(=O)O)c2C)C(=O)N3)c(F)c1` [D60, (Z)-3-(5-((5-fluoro-6-(3-(2-fluoro-4-methoxybenzoyl)ureido)-2-oxoindolin-3-ylidene)methyl)-2,4-dimethyl-1H-pyrrol-3-yl)propanic acid], the melting point is 275 to 280 °C (dec.). Further, on aurora B, the IC50 stood at 1.5 nM. Further, the IC50 at FLT-3 stood at 16.3 nM.

For `COc1ccc(C(=O)NC(=O)Nc2cc3c(cc2F)/C(=C/c2[nH]c(C)c(CC(=O)O)c2C)C(=O)N3)cc1` [D50, (Z)-2-(5-((5-fluoro-6-(3-(4-methoxybenzoyl)ureido)-2-oxoindolin-3-ylidene)-methyl)-2,4-dimethyl-1H-pyrrol-3-yl)acetic acid], the melting point is 292 to 297 °C (dec.). The half-inhibitory concentration (IC50) on aurora B amounted to 1 nM. For the same compound, the IC50 at FLT-3 was above 1000 nM.

With `COc1ccc(C(=O)NC(=O)Nc2ccc3c(c2)NC(=O)/C3=C\c2ccncc2)cc1` [D21, (Z)-4-methoxy-N-(2-oxo-3-(pyridin-4-ylmethylene)indolin-6-ylcarbamoyl)benzamide], the melting point was 270 to 275 °C (dec.). Also, the inhibition at 1 µM on aurora B came out at 7%. Moreover, at FLT-3, the inhibition at 1 µM is 3.6%.

As to `Cc1[nH]c(/C=C2\C(=O)Nc3cc(NC(=O)c4c[nH]cc(-c5cc(F)cc(F)c5)c4=O)ccc32)c(C)c1CCC(=O)O` [D148, (Z)-3-(5-((6-(5-(3,5-difluorophenyl)-4-oxo-1,4-dihydropyridine-3-carboxamido)-2-oxoindolin-3-ylidene)methyl)-2,4-dimethyl-1H-pyrrol-3-yl)propanoic acid], the melting point is above 300 °C. Further, the IC50 at aurora B turned out to be 6.7 nM. Also, on FLT-3, the half-inhibitory concentration (IC50) worked out at 50.4 nM.

As for `CN(C)c1ccc(N2CCN(C(=O)Nc3ccc4c(c3)NC(=O)/C4=C\c3ccc[nH]3)C2=O)cc1` [D93, (Z)—N-(3-((1H-pyrrol-2-yl)methylene)-2-oxoindolin-6-yl)-3-(4-(dimethylamino)-phenyl)-2-oxoimidazolidine-1-carboxamide], the melting point is 279 to 284 °C (dec.). On aurora B, the IC50 was found to be 24.2 nM. The half-maximal inhibitory concentration (IC50) at FLT-3 was found to be 1220 nM.

Take `COc1ccc(C(=O)NC(=O)Nc2ccc3c(c2)NC(=O)/C3=C\c2[nH]c(C)c(-c3ccccc3)c2C)cc1` [D43, (Z)—N-(3-((3,5-dimethyl-4-phenyl-1H-pyrrol-2-yl)methylene)-2-oxoindolin-6-ylcarbamoyl)-4-methoxybenzamide]: the melting point is above 300 °C. Moreover, the inhibition at 1 µM on aurora B amounted to 12.4%. Besides, the IC50 at FLT-3 was above 1000 nM.

Take `COc1ccc(C(=O)NC(=O)Nc2ccc3c(c2)NC(=O)C3=Cc2ccco2)cc1` (stereo in doubt) [D23, (E)-N-(3-(furan-2-ylmethylene)-2-oxoindolin-6-ylcarbamoyl)-4-methoxybenzamide]: the melting point is 278 to 283 °C (dec.). At aurora B, the inhibition at 1 µM was determined as 44%. At FLT-3, the inhibition at 1 µM stood at 15.4%.
